Data published in US11780833B2, “Emetine derivatives, prodrugs containing same, and methods of treating conditions using same” (HOWARD UNIVERSITY, priority 2011, dated 2023).
Read-outs that look alike come from different tables or passages of the source.

How the values were obtained:
[1] = pH-responsiveness by HPLC: emetine released in aqueous phosphate buffer; assay type: physicochemical; conditions: 37° C.
Procedure: Relative rates of hydrolysis of the compounds listed in Table 5 below over a 48 hour period were evaluated using the percent emetine released from the acid catalyzed hydrolysis of compounds 1 to 6.
The compounds were incubated in aqueous phosphate buffer at pH 5.5, 6.5 and 7.4 at 37° C. over a 48 hour period. High performance liquid chromatography (HPLC) was employed to analyze the samples and quantify how much emetine was released. The compounds whose hydrolysis to emetine is shown in table 5 are all 100% stable at physiological pH 7.4 up to a 5 day exposure.

DU145 cells = assay: cells; assay type: cell-based; conditions: Homo sapiens
Procedure: (§1) Studies were carried out on three prostate cancer cell lines: LNCaP, PC3, and DU145. […] There was not a significant difference in cytotoxicity of emetine between days 3 and 7. […] This increase is most likely due to the release of emetine from the dithiocarbamate salt over the time period. Further drug release studies at pH 5 confirmed about 45% release of emetine from the dithiocarbamate salt after 3-day incubation at this acidic pH maintained at 37° C., whereas release of emetine from the dithiocarbamate salt was not observed at physiological pH (e.g., about 7.4).
(§2) Various compounds prepared according to Examples 1-5 were studied in LNCaP, PC3, and DU145 cells.
(§3) Various compounds prepared according to Example 6 were studied in DU145 and PC3 cells. The IC50 was determined at 3, 5, and 7 days.

PC3 cells = assay: cells; assay type: cell-based; conditions: Homo sapiens
Procedure: as §1, §2, §3

LNCaP cells = assay: Cytotoxicity in LNCaP prostate cancer cell line; assay type: cell-based; conditions: Homo sapiens, 168 h, read-out: IC50 after 7 days
Procedure: as §1, §2

[2] = DU-145, 168 h, read-out: IC50 after 7 days
[3] = PC-3, 168 h, read-out: IC50 after 7 days
[4] = DU-145, 72 h, read-out: IC50 in DU145
[5] = DU-145, 120 h, read-out: IC50 in DU145
[6] = DU-145, 168 h, read-out: IC50 in DU145
[7] = PC-3, 72 h, read-out: IC50 in PC3
[8] = PC-3, 120 h, read-out: IC50 in PC3
[9] = PC-3, 168 h, read-out: IC50 in PC3

CCC1CN2CCc3cc(OC)c(OC)cc3C2CC1CC1c2cc(OC)c(OC)cc2CCN1C(=O)/C=C\C(=O)O (stereo not drawn) [Compound 2]
% Emetine at pH 5.5 ([1]; pH 5.5, 0 hr): 0.0% | % Emetine at pH 5.5 ([1]; pH 5.5, 24 hrs): 36.3% | % Emetine at pH 5.5 ([1]; pH 5.5, 48 hrs): 54.10% | % Emetine at pH 6.5 ([1]; pH 6.5, 0 hr): 0.0% | % Emetine at pH 6.5 ([1]; pH 6.5, 24 hrs): 35.5% | % Emetine at pH 7.4 to 8.0 over 72 hrs ([1]; pH 7.4 to 8.0, 0 hrs): 0.0% | % Emetine at pH 7.4 to 8.0 over 72 hrs ([1]; pH 7.4 to 8.0, 24 hrs): 0.0% | % Emetine at pH 7.4 to 8.0 over 72 hrs ([1]; pH 7.4 to 8.0, 48 hrs): 0.0%

CCC1CN2CCc3cc(OC)c(OC)cc3C2CC1CC1c2cc(OC)c(OC)cc2CCN1C(=O)/C=C(/C)C(=O)O (stereo not drawn) [Compound 3]
% Emetine at pH 5.5 ([1]; pH 5.5, 0 hr): 0.0% | % Emetine at pH 5.5 ([1]; pH 5.5, 24 hrs): 78.1% | % Emetine at pH 5.5 ([1]; pH 5.5, 48 hrs): 93.4% | % Emetine at pH 6.5 ([1]; pH 6.5, 0 hr): 0.0% | % Emetine at pH 6.5 ([1]; pH 6.5, 24 hrs): 76.8% | % Emetine at pH 6.5 ([1]; pH 6.5, 48 hrs): 82.7% | % Emetine at pH 7.4 to 8.0 over 72 hrs ([1]; pH 7.4 to 8.0, 0 hrs): 0.0% | % Emetine at pH 7.4 to 8.0 over 72 hrs ([1]; pH 7.4 to 8.0, 24 hrs): 0.0% | % Emetine at pH 7.4 to 8.0 over 72 hrs ([1]; pH 7.4 to 8.0, 48 hrs): 0.0%

CCC1CN2CCc3cc(OC)c(OC)cc3C2CC1CC1c2cc(OC)c(OC)cc2CCN1C(=O)/C=C\C(=O)O (stereo not drawn) [Compound 4]
% Emetine at pH 5.5 ([1]; pH 5.5, 0 hr): 0.0% | % Emetine at pH 5.5 ([1]; pH 5.5, 24 hrs): 19.2% | % Emetine at pH 5.5 ([1]; pH 5.5, 48 hrs): 27.1% | % Emetine at pH 6.5 ([1]; pH 6.5, 0 hr): 0.0% | % Emetine at pH 6.5 ([1]; pH 6.5, 24 hrs): 8.2% | % Emetine at pH 6.5 ([1]; pH 6.5, 48 hrs): 17.1% | % Emetine at pH 7.4 to 8.0 over 72 hrs ([1]; pH 7.4 to 8.0, 0 hrs): 0.0% | % Emetine at pH 7.4 to 8.0 over 72 hrs ([1]; pH 7.4 to 8.0, 24 hrs): 0.0% | % Emetine at pH 7.4 to 8.0 over 72 hrs ([1]; pH 7.4 to 8.0, 48 hrs): 0.0%

CCC1CN2CCc3cc(OC)c(OC)cc3C2CC1CC1c2cc(OC)c(OC)cc2CCN1C(=S)SCCN1C(=O)c2ccccc2C1=O (stereo not drawn) [Compound 4d]
IC50 (DU145 cells; [2]): 3050 ± 70 nM | IC50 (PC3 cells; [3]): 2770 ± 60 nM

CCC1CN2CCc3cc(OC)c(OC)cc3C2CC1CC1c2cc(OC)c(OC)cc2CCN1C(=S)SCC(=O)c1ccc(Cl)cc1 (stereo not drawn) [Compound 4i]
IC50 (DU145 cells; [2]): 2450 ± 162 nM | IC50 (PC3 cells; [3]): 2690 ± 145 nM

CCC1CN2CCc3cc(OC)c(OC)cc3C2CC1CC1c2cc(OC)c(OC)cc2CCN1C(=O)OCc1ccccc1 (stereo not drawn) [Compound 5b]
IC50 (LNCaP cells): 2160 ± 122 nM

CCC1CN2CCc3cc(OC)c(OC)cc3C2CC1CC1c2cc(OC)c(OC)cc2CCN1C(=O)/C=C(/CC(=O)O)C(=O)O (stereo not drawn) [Compound 6]
% Emetine at pH 5.5 ([1]; pH 5.5, 0 hr): 0.0% | % Emetine at pH 5.5 ([1]; pH 5.5, 24 hrs): 33.9% | % Emetine at pH 5.5 ([1]; pH 5.5, 48 hrs): 42.1% | % Emetine at pH 6.5 ([1]; pH 6.5, 0 hr): 0.0% | % Emetine at pH 6.5 ([1]; pH 6.5, 24 hrs): 13.4% | % Emetine at pH 6.5 ([1]; pH 6.5, 48 hrs): 21.1% | % Emetine at pH 7.4 to 8.0 over 72 hrs ([1]; pH 7.4 to 8.0, 0 hrs): 0.0% | % Emetine at pH 7.4 to 8.0 over 72 hrs ([1]; pH 7.4 to 8.0, 24 hrs): 0.0% | % Emetine at pH 7.4 to 8.0 over 72 hrs ([1]; pH 7.4 to 8.0, 48 hrs): 0.0%

CCC1CN2CCc3cc(OC)c(OC)cc3C2CC1CC1c2cc(OC)c(OC)cc2CCN1S(=O)(=O)c1ccc(C)cc1 (stereo not drawn) [Compound 8a]
IC50 (DU145 cells; [2]): 6240 ± 98 nM

CCC1CN2CCc3cc(OC)c(OC)cc3C2CC1CC1c2cc(OC)c(OC)cc2CCN1S(C)(=O)=O (stereo not drawn) [Compound 8b]
IC50 (LNCaP cells): 2100 ± 284 nM | IC50 (PC3 cells; [3]): 4010 ± 868 nM

CCC1CN2CCc3cc(OC)c(OC)cc3C2CC1CC1c2cc(OC)c(OC)cc2CCN1S(=O)(=O)c1ccc(F)cc1 (stereo not drawn) [Compound 8c]
IC50 (DU145 cells; [2]): 8038 ± 60 nM | IC50 (PC3 cells; [3]): 4580 ± 383 nM

CCC1CN2CCc3cc(OC)c(OC)cc3C2CC1CC1c2cc(OC)c(OC)cc2CCN1S(=O)(=O)c1ccc(Cl)cc1 (stereo not drawn) [Compound 8d]
IC50 (DU145 cells; [2]): 6620 ± 167 nM | IC50 (PC3 cells; [3]): 4210 ± 435 nM

CCC1CN2CCc3cc(OC)c(OC)cc3C2CC1CC1c2cc(OC)c(OC)cc2CCN1S(=O)(=O)c1ccc(OC)cc1 (stereo not drawn) [Compound 8f]
IC50 (PC3 cells; [3]): 6080 ± 105 nM

CCC1CN2CCc3cc(OC)c(OC)cc3C2CC1CC1c2cc(OC)c(OC)cc2CCN1C(=S)Nc1ccccc1 (stereo not drawn) [Compound 11a]
IC50 (PC3 cells; [3]): 484 ± 24.7 nM

CCC1CN2CCc3cc(OC)c(OC)cc3C2CC1CC1c2cc(OC)c(OC)cc2CCN1C(=S)Nc1ccc(OC)cc1 (stereo not drawn) [Compound 11b]
IC50 (DU145 cells; [2]): 467 ± 25 nM

CCC1CN2CCc3cc(OC)c(OC)cc3C2CC1CC1c2cc(OC)c(OC)cc2CCN1C(=S)Nc1ccc(Cl)cc1 (stereo not drawn) [Compound 11c]
IC50 (PC3 cells; [3]): 505 ± 15.9 nM

CCC1CN2CCc3cc(OC)c(OC)cc3C2CC1CC1c2cc(OC)c(OC)cc2CCN1C(=S)Nc1ccc(Br)cc1 (stereo not drawn) [Compound 11d]
IC50 (LNCaP cells): 339 ± 32.7 nM | IC50 (PC3 cells; [3]): 443 ± 38.3 nM

CCC1CN2CCc3cc(OC)c(OC)cc3C2CC1CC1c2cc(OC)c(OC)cc2CCN1C(=S)NCc1ccc(OC)cc1 (stereo not drawn) [Compound 11f]
IC50 (PC3 cells; [3]): 5000 ± 307 nM

CCC1CN2CCc3cc(OC)c(OC)cc3C2CC1CC1c2cc(OC)c(OC)cc2CCN1C(=S)NCc1ccccc1Cl (stereo not drawn) [Compound 11h]
IC50 (DU145 cells; [2]): 2370 ± 112 nM

CCC1CN2CCc3cc(OC)c(OC)cc3C2CC1CC1c2cc(OC)c(OC)cc2CCN1C(=S)NCc1ccc(F)cc1 (stereo not drawn) [Compound 11i]
IC50 (PC3 cells; [3]): 5270 ± 372 nM

CCC1CN2CCc3cc(OC)c(OC)cc3C2CC1CC1c2cc(OC)c(OC)cc2CCN1C(=S)NCc1ccc(C)cc1 (stereo not drawn) [Compound 11j]
IC50 (DU145 cells; [2]): 2630 ± 106 nM

CCCCCCNC(=S)N1CCc2cc(OC)c(OC)cc2C1CC1CC2c3cc(OC)c(OC)cc3CCN2CC1CC (stereo not drawn) [Compound 11l]
IC50 (LNCaP cells): 1700 ± 144 nM | IC50 (PC3 cells; [3]): 2450 ± 323 nM

CCCCCCCCNC(=S)N1CCc2cc(OC)c(OC)cc2C1CC1CC2c3cc(OC)c(OC)cc3CCN2CC1CC (stereo not drawn) [Compound 11m]
IC50 (LNCaP cells): 1010 ± 249 nM | IC50 (PC3 cells; [3]): 1420 ± 336 nM

CCC1CN2CCc3cc(OC)c(OC)cc3C2CC1CC1c2cc(OC)c(OC)cc2CCN1C(=S)NCCOC (stereo not drawn) [Compound 11n]
IC50 (PC3 cells; [3]): > 10000 nM

CCC1CN2CCc3cc(OC)c(OC)cc3C2CC1CC1c2cc(OC)c(OC)cc2CCN1C(=O)NCc1ccccc1 (stereo not drawn) [Compound 13e]
IC50 (LNCaP cells): 2120 ± 576 nM

CCC1CN2CCc3cc(OC)c(OC)cc3C2CC1CC1c2cc(OC)c(OC)cc2CCN1C(=O)/C=C/C(=O)O (stereo not drawn) [Compound 15a2]
IC50 (DU145 cells; [4]): 7960 ± 312 nM | IC50 (DU145 cells; [5]): 5730 ± 182 nM | IC50 (DU145 cells; [6]): 4230 ± 418 nM | IC50 (PC3 cells; [7]): 8390 ± 208 nM | IC50 (PC3 cells; [8]): 7058 ± 15.7 nM | IC50 (PC3 cells; [9]): 7710 ± 151 nM

CCC1CN2CCc3cc(OC)c(OC)cc3C2CC1CC1c2cc(OC)c(OC)cc2CCN1C(=O)/C(Cl)=C(\Cl)C(=O)O (stereo not drawn) [Compound 15b2]
IC50 (DU145 cells; [4]): 6530 ± 85.2 nM | IC50 (DU145 cells; [5]): 5990 ± 238 nM | IC50 (DU145 cells; [6]): 5218 ± 45.9 nM | IC50 (PC3 cells; [7]): 7580 ± 135 nM | IC50 (PC3 cells; [8]): 5990 ± 238 nM | IC50 (PC3 cells; [9]): 7510 ± 168 nM

CCC1CN2CCc3cc(OC)c(OC)cc3C2CC1CC1c2cc(OC)c(OC)cc2CCN1C(=O)/C=C(/CC(=O)O)C(=O)O (stereo not drawn) [Compound 15d2]
IC50 (DU145 cells; [4]): 2580 ± 190 nM | IC50 (DU145 cells; [5]): 2010 ± 73.4 nM | IC50 (DU145 cells; [6]): 1790 ± 134 nM | IC50 (PC3 cells; [7]): 3060 ± 110 nM | IC50 (PC3 cells; [8]): 2430 ± 118 nM | IC50 (PC3 cells; [9]): 2890 ± 123 nM

CCC1CN2CCc3cc(OC)c(OC)cc3C2CC1CC1c2cc(OC)c(OC)cc2CCN1C(=O)CCC(=O)O (stereo not drawn) [Compound 15e2]
IC50 (DU145 cells; [4]): 733 ± 22 nM | IC50 (DU145 cells; [5]): 641 ± 54.3 nM | IC50 (DU145 cells; [6]): 802 ± 19.8 nM | IC50 (PC3 cells; [7]): 2500 ± 72.2 nM | IC50 (PC3 cells; [8]): 1820 ± 161 nM | IC50 (PC3 cells; [9]): 2150 ± 131 nM
